Read-outs that look alike come from different tables or passages of the source.
Experiments:
[1] = tested on: HIV-1 infection of TZM-bl cells; test: HIV-1 infectivity enhancement assay, β-galactosidase luminescence; format: cell-based; conditions: for Rel-EFC / Log10 Infection Rel EFC: 1.3 µM peptide; for Rel-EFC: infection relative to EF-C (QCKIKQIINMWQ = 1); for Log10 Infection Rel EFC: log10 of infection relative to EF-C; for Log Infectivity: Log10 infection relative to EF-C, TZM-bl cells, asymmetric std dev errors; for Log10 Infection Rel EF-C: HIV-1 infection of TZM-bl cells; for Log10 of Rel to EFC (Feb2021): Log10 of infection relative to EF-C, all peptides of FigS16; for Abs. Inf.: absolute infection signal, HIV-1 on TZM-bl cells, β-galactosidase luminescence; for Log10 Inf. rel. to EF-C: log10 of HIV-1 infection of TZM-bl cells relative to EF-C (EF-C = 0)
[2] = format: physicochemical; set-up: key to Fibril / Fibril Formation / TEM 2cat / Fibril: 1 = fibrils present; 0 non-fibrillar structures; conditions: for Fibril / Fibril Formation: 1 mg/mL, uranyl acetate stain, qualitative
[3] = Zeta-potential measurement; format: physicochemical
Summary of the method: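 Surface charge of aggregated peptides: 1 mg/mL solutions in PBS (pH 7.4) incubated 1 d at RT, diluted into 1 mM KCl just before reading. Electrophoretic mobility converted to zeta potential by the Smoluchowski formula; triplicate measurements from two separate experiments averaged.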

[4] = Turbidity, derived count rate of scattered light; format: physicochemical; conditions: for Count Rate: derived count rate of scattered light (turbidity); for Log10 Count Rate: turbidity, derived count rate of scattered light, data of Figure 2D
[5] = Fig. S7 panel A (plotted against β-sheet content)
[6] = Fig. S7 panel B (plotted against CR), rounded to two decimals
[7] = Log10 of infection rate relative to EF-C, Figure 3A source data
[8] = infection rate relative to EF-C, log10, data of Figure 2D
[9] = infection rate relative to EF-C, log10, source data of Figure 2C
[10] = TEM, 1 = fibrils present, 0 = non-fibrillar
[11] = TEM, 1 = fibrils present, 0 = non-fibrillar structures
[12] = category: fibrils present or non-fibrillar
[13] = zeta-potential of peptide, source data of Figure 2C
[14] = zeta-potential of the peptide assemblies, mean, Figure 3A source data
[15] = zeta potential of peptide assemblies
[16] = FigS12 panel A, fibril category by TEM

Substance	Rel-EFC [1]	Log10 Infection Rel EFC [1]	Log Infectivity [1, 5]	Log Infectivity [1, 6]	Log10 Infection Rel EF-C [1, 7]	Log10 Infection Rel EF-C [1, 8]	Log10 Infection Rel EF-C [1, 9]	Abs. Inf. [1]	Log10 Inf. rel. to EF-C [1]	TEM 2cat ([2]; Fig S10 panel D)	Fibril / Fibril Formation ([2]; TEM)	Fibril [2, 10]	Fibril [2, 11]	Zeta-Pot. [3]	Zeta-Potential / mV [3, 13]	Zeta-Potential / mV [3, 14]	Count Rate [4]	Log10 Count Rate [4]	TEM 2cat [2, 16]	Fibril ([2]; FigS12 panel B, TEM)	further results
RGECKFKFQF	0,33	-0,48	-0.4776	-0.48	-0.48	-0.4776	-0.4776	7411	-0.4776	1	1	1	1	23.97	22.32 mV	23.97 mV	219.3	2.341	–	–	Log10 of Rel to EFC (Feb2021) [1]: -0.48; Fibril ([2]; Fig S10 panel E): 1; TEM 2cat [2, 12]: 1
KIKIQIAMWQ	0,39	-0,41	-0.4109	–	-0.41	-0.4109	-0.4109	–	-0.4109	1	1	1	1	–	13.33 mV	11.3 mV	540.9	2.733	–	–	Log10 of Rel to EFC (Feb2021) [1]: -0.41; TEM 2cat [2, 12]: 1; Zeta-Pot. [3, 15]: 11.3
FDPFDPFDP	0,02	-1,63	-1.6317	–	-1.63	-1.6317	-1.6317	346.7	-1.6317	0	0	0	0	-10.9	-6.68 mV	-10.9 mV	258	2.412	0	0	–
PPFHPPPFHP	0,02	-1,75	-1.751	–	-1.75	-1.751	-1.751	263.3	-1.751	0	0	0	0	-15.8	-9.582 mV	-15.8 mV	59.13	1.772	0	0	–
KIKQIIN	0,04	-1,4	-1.4	–	-1.4	-1.4	-1.4	–	-1.4	0	0	0	0	–	-5.929 mV	-11.7 mV	64.03	1.806	0	0	Zeta-Pot. [3, 15]: -11.7
RGEKIKIQINM	0,24	-0,61	-0.6134	-0.61	-0.61	-0.6134	-0.6134	7838	-0.6134	1	1	1	1	15.3	16.35 mV	15.3 mV	594.6	2.774	–	–	Log10 of Rel to EFC (Feb2021) [1]: -0.61; Fibril ([2]; Fig S10 panel E): 1; TEM 2cat [2, 12]: 1
RPRGLLLGNLR	0,05	-1,32	-1.3163	–	-1.32	-1.3163	-1.3163	716.7	-1.3163	0	0	0	0	-8.15	-5.002 mV	-8.15 mV	210.1	2.322	0	0	–
KNERIKNERI	0,01	-1,89	-1.888	-1.89	-1.89	-1.888	-1.888	143.3	-1.888	0	0	0	0	-16	-11.61 mV	-16 mV	321.9	2.508	0	0	Fibril ([2]; Fig S10 panel E): 0
CKIKQIINM	0,5	-0,3	-0.3035	-0.3	-0.3	-0.3035	-0.3035	11280	-0.3035	1	1	1	1	12.9	13.87 mV	12.9 mV	9058	3.957	–	–	Log10 of Rel to EFC (Feb2021) [1]: -0.3; Fibril ([2]; Fig S10 panel E): 1; TEM 2cat [2, 12]: 1
HRRHFRHKITKKK	0,01	-1,87	-1.868	-1.87	-1.87	-1.868	-1.868	150	-1.868	0	0	0	0	-9.223	-4.964 mV	-9.22 mV	9.5	0.9777	0	0	Fibril ([2]; Fig S10 panel E): 0
KVKGVGK	0,03	-1,59	-1.587	–	-1.59	-1.587	-1.587	286.7	-1.587	0	0	0	0	-12.8	-7.825 mV	-12.8 mV	51.17	1.709	0	0	–

Source: PMC10447463, “Data-mining unveils structure–property–activity correlation of viral infectivity enhancing self-assembling peptides” (Nature Communications, 2023)
